{
  "source": "patent US9822104B2",
  "about": "“Taxifolin derivative with superior antioxidant effect and cosmetic composition containing the same” (Yeomyung Biochem Co., Ltd, priority 2015, dated 2017)",
  "key": {"[1]": {"assay": "DPPH radical scavenging assay", "assay_type": "biochemical", "conditions": "for IC50 of DPPH radical scavenging activity: FIGS. 15A and 15B; for Antioxidative activity (IC50 mg/mL): DPPH radical scavenging, absorbance at 517 nm, reacted in the dark one hour, repeated three times, Table 1", "method": "The antioxidant effect of synthesized taxifolin derivative was measured using a DPPH(1,1-diphenyl-2-picrylhydrazyl) radical (Blois M S. 1958. Antioxidant determination by the use of a stable free radical. Nature 25: 1199-1120). For measurement, different concentrations of 0.1 mL of the synthesized taxifolin derivatives were prepared and then mixed with 2.5 mL of ethanol. 0.5 mL of a 0.2 mM DPPH solution was added to the resulting mixture and reacted in the dark for one hour. Then, the absorbance of the reaction product was measured at 517 nm using a UV/Vis-spectrophotometer (BIO-RAD, USA). All tests were repeated three times, methanol was used as a blank sample and DPPH radical effect was calculated in accordance with the following Equation 1. DPPH radical scavenging activity was represented by IC50 (the concentration required for 50% inhibition). Scavenging effect (%)=(A−B)/A×100 [Equation 1]\nwhere A=absorbance at 517 nm without test sample\nwhere B=absorbance at 517 nm with test sample"}, "[2]": {"assay": "FRAP assay (ferric reducing ability)", "assay_type": "biochemical", "conditions": "for FRAP value: 37° C. for 10 minutes, absorbance at 593 nm, FeSO4 calibration, ascorbic acid control at 1 mg/mL, Table 2", "method": "FRAP assay of the samples was conducted by slightly modifying the method of Benzie and Strain (Benzie I F F, Strain J J. 1996. The ferric reducing ability of plasma (FRAP) as a measure of “Antioxidant power”: The FRAP assay. Anal Biochem 230: 70-79). The FRAP reagent was prepared by heating 25 mL acetate buffer (300 mM, pH 3.6) at 37′ C and adding a solution of 5 mL of 10 mM 2,4,6-tris(2-pyridyl)-s-triazine (TPTZ, Sigma) and 2.5 mL of 20 mM […] in 40 mM HCl thereto. 0.03 mL of the sample (Example 1 or Example 2) and 0.09 mL of distilled water were added to 0.9 mL of the prepared FRAP reagent, reaction was proceeded at 37° C. for 10 minutes and absorbance at 593 nm was measured using a spectrophotometer (Benchmark PLUS Bio-Rad). Distilled water, instead of the sample, was used as the blank. 1 mg/mL of ascorbic acid was used as a control group. A calibration equation for FeSO4 made by repetition at different concentrations of 0.125, 0.25, 0.5, 1 and 2 mM was obtained and measurement values of the samples were converted to FRAP values by applying the measurement values thereto. All measurements were repeated three times."}},
  "data": [
    {"molecule": "CC1(C)SCCC(CCCCC(=O)O)S1", "note": "(stereo not drawn) [Lipoic acid (dithiol protection), 5-(2,2-dimethyl-1,3-dithian-4-yl)pentanoic acid]", "values": [
      {"measurement": "IC50 of DPPH radical scavenging activity", "setting": "[1]", "value": "about 2,000 mg/ml"},
      {"measurement": "FRAP value", "setting": "[2]", "value": "0.74 ± 0.006", "unit": "mM"}
    ]},
    {"molecule": "O=C(CCCCC1CCSS1)Oc1cc(OC(=O)CCCCC2CCSS2)c2c(c1)OC(c1ccc(OC(=O)CCCCC3CCSS3)c(OC(=O)CCCCC3CCSS3)c1)C(OC(=O)CCCCC1CCSS1)C2=O", "note": "(stereo not drawn) [Taxifolin penta lipoate, 2-(3,4-bis(5-(1,2-dithiolan-3-yl)pentanoyloxy)phenyl)-4-oxochroman-3,5,7-triyl tris(5-(1,2-dithiolan-3-yl)pentanoate)]", "values": [
      {"measurement": "IC50 of DPPH radical scavenging activity", "setting": "[1]", "value": "220 ± 3", "unit": "µg/mL"},
      {"measurement": "IC50 of DPPH radical scavenging activity", "setting": "[1]; listed as Example 2", "value": "very low IC50"},
      {"measurement": "FRAP value", "setting": "[2]", "value": "3.57 ± 0.146", "unit": "mM"},
      {"measurement": "FRAP value, ranking in words", "setting": "[2]; FIG. 16, comparison among the samples", "value": "next highest value"}
    ]},
    {"molecule": "O=C1O[C@H]([C@@H](O)CO)C(O)=C1O", "note": "[Ascorbic acid, ascorbic acid]", "values": [
      {"measurement": "FRAP value", "setting": "[2]", "value": "3.7 ± 0.007", "unit": "mM"}
    ]},
    {"molecule": "OCCCCCC1CCSS1", "note": "(stereo not drawn) [Lipoic alcohol]", "values": [
      {"measurement": "Antioxidative activity (IC50 mg/mL)", "setting": "[1]", "value": "3.22 ± 0.05", "unit": "mg/mL"},
      {"measurement": "FRAP value", "setting": "[2]", "value": "1.24 ± 0.007", "unit": "mM"}
    ]},
    {"molecule": "O=C(O)CCCC[C@@H]1CCSS1", "note": "(racemic) [Lipoic acid]", "values": [
      {"measurement": "Antioxidative activity (IC50 mg/mL)", "setting": "[1]", "value": "515.77 ± 5.41", "unit": "mg/mL"},
      {"measurement": "IC50 of DPPH radical scavenging activity", "setting": "[1]", "value": "about 250 mg/ml"},
      {"measurement": "FRAP value", "setting": "[2]", "value": "1.14 ± 0.019", "unit": "mM"}
    ]}
  ]
}
